Experimental data taken from US20260115250A1, “METHODS OF TREATING AGE-RELATED MACULAR DEGENERATION” (Character Biosciences, Inc., priority 2022, published 2026).
Peptide text beside a SMILES is read from it.

Key:
[1] = molecular target: T1, LDLR (Homo sapiens, UniProt P01130); assay: LDLR binding (SPR), high surfactant preparation; conditions: high surfactant preparation (HBS-P+), 1:1 binding model; read-out: binding KD to LDLR
Summary of the method: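 Multi-cycle kinetics fitted 1:1: peptide flowed at 30 μL/sec for 120 seconds over immobilised LDLR (amine coupling, CM5, 1000 RU) in running buffer HBS-P+ plus 1 mM CaCl2. Five concentrations per peptide, 1:3 serial from 5 μM; surface regenerated between cycles with 50 mM NaOH/100 mM EDTA.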
Target sequence in this assay (P01130 22-860): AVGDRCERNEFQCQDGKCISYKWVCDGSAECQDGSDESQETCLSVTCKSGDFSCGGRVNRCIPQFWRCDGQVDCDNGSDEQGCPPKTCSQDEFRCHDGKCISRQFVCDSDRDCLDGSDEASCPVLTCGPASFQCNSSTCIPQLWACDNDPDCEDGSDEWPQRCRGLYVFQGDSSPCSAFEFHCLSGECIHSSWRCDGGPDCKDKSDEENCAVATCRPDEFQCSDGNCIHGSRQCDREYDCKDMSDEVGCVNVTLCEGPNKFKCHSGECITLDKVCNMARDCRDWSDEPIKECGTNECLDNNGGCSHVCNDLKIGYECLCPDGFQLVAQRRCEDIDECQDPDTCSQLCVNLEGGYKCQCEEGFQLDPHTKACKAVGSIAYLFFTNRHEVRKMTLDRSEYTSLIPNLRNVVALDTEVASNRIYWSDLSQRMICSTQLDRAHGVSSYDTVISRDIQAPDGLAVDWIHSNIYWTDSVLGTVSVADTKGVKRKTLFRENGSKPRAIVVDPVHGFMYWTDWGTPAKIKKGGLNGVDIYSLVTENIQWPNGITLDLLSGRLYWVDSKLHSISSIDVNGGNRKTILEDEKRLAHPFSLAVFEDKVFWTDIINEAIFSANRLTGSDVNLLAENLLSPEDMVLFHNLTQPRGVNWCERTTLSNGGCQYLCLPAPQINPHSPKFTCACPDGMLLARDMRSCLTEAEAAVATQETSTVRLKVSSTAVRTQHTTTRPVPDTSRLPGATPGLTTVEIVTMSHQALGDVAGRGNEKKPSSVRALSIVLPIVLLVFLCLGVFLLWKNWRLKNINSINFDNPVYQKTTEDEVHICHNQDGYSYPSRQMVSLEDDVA

[2] = molecular target: T1, LDLR; assay: KD (µM)
Description: Table printed on a drawing sheet, FIG. 23
Title: Buffer: HBS + 0.05% P20
Head of the field: KD (µM)
The patent's description of the figure: FIG. 23 is a table showing the binding kinetics results of LDLR binding assays (SPR), high surfactant preparation as described herein for select peptides shown in FIG. 1A-1I.
First copying reader's note: Right of three side-by-side panels of FIG. 23; the KD cells hold value ± error together.
Where the first naming reader finds the target: description_of_the_figure: FIG. 23 is a table showing the binding kinetics results of LDLR binding assays (SPR), high surfactant preparation
Target sequence in this assay (P01130 22-860 limits assumed): as the sequence (P01130 22-860) above

[3] = tested on: ARPE-19 cells; assay: ARPE-19 cell viability assay (Cell Titer Glo); assay type: cell-based, human; conditions: 100 μM peptide, 1.5 hours
Description: ARPE-19 cells were seeded in 96-well plates at 25,000 cells/well and allowed to adhere to the plate surface for at least 24 hours. Peptides were diluted in serum-free DMEM: F12 to a final concentration of 100 μM. Cells were washed, then incubated in 100 μM peptide solution for 1.5 hours at 37° C. Plates were brought to room temperature for 30 minutes, then washed with DPBS. Cells were incubated in a 1:1 mixture of DPBS and Cell Titer Glo 2.0 Reagent for 10 minutes at room temperature, then cell luminescence was read on a plate reader. Viability values were background corrected, and 0% viability is determined by luminescence values of cells treated with 1% Triton-X-100. Data are presented as mean+SD over two separate runs.

[4] = molecular target: T2, ABCA1 (Mus musculus, UniProt P41233); assay: membrane ABCA1 stability testing in J774 cells; assay type: cell-based, murine; conditions: 4 hours
T2 construct: endogenous in cells; host or cells: J774 murine macrophage cells, ABCA1 induced with 8-Br-cAMP and AcLDL
T2 sequence (P41233 whole entry): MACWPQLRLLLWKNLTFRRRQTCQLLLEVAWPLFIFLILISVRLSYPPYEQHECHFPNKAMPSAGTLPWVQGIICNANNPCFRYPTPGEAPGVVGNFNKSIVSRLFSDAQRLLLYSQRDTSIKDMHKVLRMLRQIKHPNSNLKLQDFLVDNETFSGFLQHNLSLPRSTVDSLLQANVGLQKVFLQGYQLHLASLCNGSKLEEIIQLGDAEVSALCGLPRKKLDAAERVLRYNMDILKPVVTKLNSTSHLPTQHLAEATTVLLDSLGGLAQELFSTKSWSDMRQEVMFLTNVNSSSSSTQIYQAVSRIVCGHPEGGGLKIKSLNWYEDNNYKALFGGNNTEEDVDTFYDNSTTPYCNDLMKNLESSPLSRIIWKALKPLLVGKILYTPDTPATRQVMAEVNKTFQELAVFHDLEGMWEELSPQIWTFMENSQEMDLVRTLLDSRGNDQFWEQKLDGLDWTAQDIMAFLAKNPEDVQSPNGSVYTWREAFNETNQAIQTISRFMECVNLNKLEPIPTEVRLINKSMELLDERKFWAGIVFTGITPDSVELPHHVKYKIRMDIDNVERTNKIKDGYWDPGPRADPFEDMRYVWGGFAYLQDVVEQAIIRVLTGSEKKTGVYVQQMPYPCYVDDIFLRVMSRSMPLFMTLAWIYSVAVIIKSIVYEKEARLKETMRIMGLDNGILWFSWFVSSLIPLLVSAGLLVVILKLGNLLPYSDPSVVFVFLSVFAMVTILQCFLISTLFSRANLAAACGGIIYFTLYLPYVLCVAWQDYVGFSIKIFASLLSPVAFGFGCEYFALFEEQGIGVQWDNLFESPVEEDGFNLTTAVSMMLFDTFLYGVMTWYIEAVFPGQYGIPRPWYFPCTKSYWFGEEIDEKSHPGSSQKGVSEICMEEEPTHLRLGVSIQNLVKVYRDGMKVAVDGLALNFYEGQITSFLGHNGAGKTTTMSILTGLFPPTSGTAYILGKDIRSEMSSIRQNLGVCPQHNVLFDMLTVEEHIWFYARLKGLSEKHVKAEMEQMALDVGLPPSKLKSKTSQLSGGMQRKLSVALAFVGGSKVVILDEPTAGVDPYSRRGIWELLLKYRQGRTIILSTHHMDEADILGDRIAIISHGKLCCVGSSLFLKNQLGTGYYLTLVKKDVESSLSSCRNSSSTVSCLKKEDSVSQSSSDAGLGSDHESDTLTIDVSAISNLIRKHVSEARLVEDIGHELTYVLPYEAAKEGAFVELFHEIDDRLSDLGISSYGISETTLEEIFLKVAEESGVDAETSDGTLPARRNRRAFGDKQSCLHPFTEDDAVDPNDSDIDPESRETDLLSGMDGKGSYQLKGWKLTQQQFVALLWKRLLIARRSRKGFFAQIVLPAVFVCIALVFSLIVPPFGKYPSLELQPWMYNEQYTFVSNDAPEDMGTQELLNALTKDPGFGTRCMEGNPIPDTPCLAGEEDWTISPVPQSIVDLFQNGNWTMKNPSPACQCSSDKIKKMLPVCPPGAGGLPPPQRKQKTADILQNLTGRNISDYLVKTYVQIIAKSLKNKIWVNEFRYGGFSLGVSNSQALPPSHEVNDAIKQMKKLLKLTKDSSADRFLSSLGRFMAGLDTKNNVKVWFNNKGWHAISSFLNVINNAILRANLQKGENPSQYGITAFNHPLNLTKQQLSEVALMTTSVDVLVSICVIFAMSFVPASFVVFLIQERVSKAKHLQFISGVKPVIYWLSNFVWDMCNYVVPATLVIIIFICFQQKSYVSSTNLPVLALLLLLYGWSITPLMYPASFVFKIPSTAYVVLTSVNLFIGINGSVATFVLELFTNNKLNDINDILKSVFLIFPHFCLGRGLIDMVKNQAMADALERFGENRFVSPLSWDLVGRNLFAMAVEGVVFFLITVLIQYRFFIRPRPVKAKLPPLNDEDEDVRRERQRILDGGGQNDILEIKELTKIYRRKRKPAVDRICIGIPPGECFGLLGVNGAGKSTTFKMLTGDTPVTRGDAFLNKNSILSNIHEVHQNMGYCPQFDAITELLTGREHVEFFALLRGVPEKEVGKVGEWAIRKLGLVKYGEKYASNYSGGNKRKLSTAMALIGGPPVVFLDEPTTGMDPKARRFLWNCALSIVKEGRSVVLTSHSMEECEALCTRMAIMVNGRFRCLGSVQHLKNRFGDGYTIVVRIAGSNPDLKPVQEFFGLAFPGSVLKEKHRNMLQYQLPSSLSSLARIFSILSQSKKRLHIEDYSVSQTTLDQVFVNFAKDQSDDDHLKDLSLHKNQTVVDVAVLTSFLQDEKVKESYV
Description: FIGS. 33A-33C illustrate the results of membrane ABCA1 stability testing in J774 Cells. J774 murine macrophage cells were seeded at 50,000 cells per well on 12-well plates and were allowed to grow to confluence. A vehicle solution of 0.1% BSA in serum-free DMEM was prepared for control wells. An ABCA1 induction solution of 0.1% BSA with 1 mM 8-Br-CAMP and 50 μg/mL AcLDL was prepared in serum-free DMEM and incubated on cells overnight at 37° C. to increase ABCA1 protein levels on the membrane. A solution of 10 μM peptide was prepared in serum-free DMEM and serially diluted 1:10 for 4 concentrations. ApoAI was prepared at a concentration of 300 nM. Peptides or ApoA1 were added to cells for 4 hours at 37° C. before isolating membrane protein and measuring membrane ABCA1 levels by western blot. Blots were quantified in ImageJ and the signal was normalized to membrane Na+/K+ pump levels. Signals were further normalized to the 18-hour cAMP treated group to determine percent (%) Membrane ABCA1 remaining.

Compound | Kd [1] | Kd [2] | ARPE-19 cell viability [3] | membrane ABCA1 levels after washout of 8-Br-cAMP [4]
CC(C)C[C@H](NC(=O)[C@H](CC(=O)O)NC(=O)[C@H](CCCCN)NC(=O)CNC(=O)[C@H](Cc1ccc(O)cc1)NC(=O)[C@H](CC(=O)O)NC(=O)[C@@H](NC(=O)[C@@H](NC(=O)[C@@H](NC(=O)[C@H](CCC(N)=O)NC(=O)[C@H](Cc1ccccc1)NC(=O)[C@H](Cc1ccc(O)cc1)NC(=O)[C@H](CCC(N)=O)NC(=O)[C@H](CO)NC(=O)[C@@H](NC(=O)[C@H](CC(C)C)NC(=O)[C@H](CO)NC(=O)[C@H](CCCNC(=N)N)NC(=O)[C@H](CC(C)C)NC(=O)[C@H](CC(C)C)NC(=O)[C@H](CCCNC(=N)N)NC(=O)[C@H](CCCCN)NC(=O)[C@H](CCCNC(=N)N)NC(=O)[C@H](CC(C)C)NC(=O)[C@H](CCCCN)NC(=O)[C@H](CCCNC(=N)N)NC(=O)[C@H](CC(C)C)NC(=O)[C@@H](N)Cc1c[nH]cn1)C(C)C)[C@@H](C)O)C(C)C)[C@@H](C)O)C(=O)O [T-109] (H-HLRKLRKRLLRSLVSQYFQTVTDYGKDL-OH) | < 10000 nM | 1200 ± 90 nM | substantial change in viability | 
ApoA1: positive control protein ApoA1 (apolipoprotein A1) |  |  |  | preserved membrane ABCA1 levels
